The nature of data set [1]: Aqueous solubility of the compound. In kind it is physicochemical. To be noted: buffer.
Data set [2] is described as follows: Metabolic stability in mouse liver microsomes assessed as half life. In kind it is ADME, Microsome. In general terms: Microsomes from liver hold many membrane-bound enzymes, among them those of drug oxidation.

Molecules are shown by their SMILES. Converted amounts (≈) assume the structure as drawn.

A word on the solubility: it is how much of the substance goes into solution per volume. High values mean a readily soluble substance, low ones a poorly soluble substance. One may read the half-life as the time in which the quantity being followed falls by half.

Compound `Cn1ccc2cccc(COc3cccc(-c4c(Cc5ccccc5)nnc5c(C(F)(F)F)cccc45)c3)c21` showed a solubility in data set [1] of 2 µg/mL (≈ 3.82 µM). Moreover, in data set [2], the half-life is less than 5 min.
